Holding throughout (assay type): cell-based
Assay [1] concerns βTC-3 cells. Briefly: Immunocytochemistry and fluorescence studies of oximes. The settings on record: fluorescence studies. On the procedure:
Single phages isolated according to the enrichment scheme above were amplified. The phage peptides and one of oximes 1–6 were added and incubated for 24 hours with cells in culture medium. Medium was then washed off and cells fixed in cold methanol-acetone (1:1) for 5 minutes. Antibodies directed against the phage capsid or against biotin (peptides) were used with a fluorescein-conjugated (phage) or Texas Red labeled (peptides) secondary antibody. Classical fluorescence microscopic studies and confocal microscopic assays were performed.
Oximes 1–3 were first tested for their entry into βTC-3 cells. […] The superiority of oxime 3 may be due to the flexibility of the PEG spacer, which increases binding to the receptors on the cells.
Oximes 4–6, which are similar to oxime 3, were then synthesized and assayed for binding avidity and entry efficiency.

For the next assay, the system named is βTC-3 cell line. Briefly: Panning of phage display library on βTC-3 cells, occurrence of recovered phages. On the procedure: (§1) A library of 3×10^8 independent phages displaying random 15-mer epitopes at the surface of the capsids was generated using standard procedures (e.g., in T7 415 or the T7 413b phage, Novagen). See Smith and Scott, Methods Enzymol. 217:228 (1993). Phages were amplified then purified by polyethylene glycol (PEG) precipitation and finally resuspended at a concentration of 10^10 infective particles per μl in Tris-EDTA buffer (10:1 mM, TE) as described (by Smith and Scott, supra). Phages (10^12) were added to cells in culture medium for 1 to 24 hours. Longer incubation times were preferred to favor isolation of phages that escaped proteolytic degradation in endocytotic vesicles. Following binding and internalization, cells were washed and non-internalized phages were destroyed by digestion with subtilisin (3 mg/ml) (44). Following extensive washing, internalized phages were then recovered by lysing cells in a buffer containing 2% deoxycholate, 10 mM Tris-HC1 and 2mM EDTA, pH 8.0. Recovered phages were finally amplified in E. coli cells (XL-1-Blue) and purified as described above. This preparation of selected phages was then used for a second round of panning. Three to five sequential rounds were performed to obtain enrichment of specific phage-bearing peptide sequences.
The pancreatic β-cell line βTC-3 was panned with the phage display library mentioned herein. […] Panning experiments using βTC-3 cells were performed with 10^9 phages used at each step of the enrichment procedure. The number of phages recovered at 0 ° C.
The occurrence of phages recovered after three steps of panning in the βTC-3 cell line is seen in Table 2.

The subject of the next assay is HeLa. Briefly: Specificity of phage uptake, internalized and recovered phages. The settings on record: 10^8 phages incubated 16 hours. On the procedure:
as §1
(§2) Determination of the specificity of uptake was performed by titrating the number of recovered phages in 5 different cell lines.

Another assay deals with HepG2. Described as above. Conditions: 10^8 phages incubated 16 hours. The procedure:
as §1, §2

The next assay deals with βTC-3. The description is as above. On the procedure:
as §1, §2

The next assay concerns A549. The assay is described as above. The settings on record: 10^8 phages incubated 16 hours. On the procedure:
as §1, §2

In another assay the test system is WiDr. The description is as above. Conditions: 10^8 phages incubated 16 hours. The procedure: as §1, §2
For another assay, the system named is 5 different cell lines. Briefly: Specificity of phage uptake across the cell lines. The settings on record: βTC-3 vs HeLa, WiDr, HepG2, A549. The procedure: as §1, with “sequences. […]” for “sequences.”
Assay [2] has as its system βTC-3 cells. Briefly: Titration of phage P1 incubated with βTC-3 cells. On the procedure: as §1
The ratio of input/recovered phages is also shown.

Consider 4 substances from patent US7033597B2, “Intracellular delivery of biological effectors” (Université de Lausanne, priority 2000, dated 2006).

Where no end group is shown, it is not given here. A value given as a limit tells only on which side of the number the result lay.

“Oxime 3: tetraoxime with four copies of RRTK, two-unit PEG spacer between peptide and core 1, FITC reporter (RRTK-OH; not fully specified (N-terminus, bridges); also: tetraoxime: four RRTK copies joined by thioether to Cys of branched trilysine core 1, core carries aminooxyacetyl-Lys(FITC) via oxime bond)”: in the assay with βTC-3 cells [1], the “binding to receptors on the cell surface” value is “clearly bound to the receptors on the surface of βTC-3 cells”.
Turning to RKLR [Oxime P6], the “occurrence of phages recovered after three steps of panning” value in the assay with βTC-3 cell line is listed as 17%.
Same read-out and setting: the value for RRPK [Oxime P66] was 5.5%.
For the substance RRTK [Oxime P1], the Phages recovered is reported as <1 × 10^2 in the assay with HeLa; less than 10 with HepG2; 1 × 10^7 in the assay with βTC-3 (βTC-3, 10^8 phages incubated 16 hours); 10^3 in the assay with A549; 2 × 10^2 with WiDr. In the assay with βTC-3 (phage experiments, βTC-3 cells), the efficiency of internalization result is on record as “low”. Moreover, in the assay on βTC-3 (phage experiments, βTC-3 cells), the uptake by cells entry is recorded as “taken up specifically by βTC-3 cells via receptor-mediated endocytosis”. Further, in the assay with 5 different cell lines, the “uptake by βTC-3 cells relative to any other cell line tested” value was 10,000 to 1,000,000 fold. The “occurrence of phages recovered after three steps of panning” value with βTC-3 cell line came out at 61%. In the assay with βTC-3 cells [2] (incubation 1 h), the “% Recovered” value amounted to 0.01%. The “initial phage input recovered” value with βTC-3 cells [2] (titration experiments) is given as no more than 10%.
